# According to patent publication US11596639B2, “Substituted indole Mcl-1 inhibitors” (Vanderbilt University, priority 2016, dated 2023):
# Molecular target: Mcl-1 (Homo sapiens (Human), UniProt Q07820)
# Experiment: Fluorescence polarization anisotropy (FPA) competition assay, FITC-Bak or FITC-Bim BH3 peptide
# Format: binding
# Conditions: read-out: Ki for Inhibition of Mcl-1 by FPA assay
# Sequence of Mcl-1 (Q07820 172-327): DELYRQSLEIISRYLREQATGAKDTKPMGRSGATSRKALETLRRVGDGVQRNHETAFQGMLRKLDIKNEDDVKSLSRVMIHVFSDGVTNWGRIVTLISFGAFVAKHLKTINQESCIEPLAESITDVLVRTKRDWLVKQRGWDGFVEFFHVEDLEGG
row,Compound,Ki
1,"Cc1cc(OCCCc2c3n(c4c(-c5c(C)nn(C)c5C)c(Cl)ccc24)CCCN(c2ccc4c(c2)CCCN4CC(=O)O)C3=O)cc(C)c1Cl [Example 46, 2-(6-(8-Chloro-11-(3-(4-chloro-3,5-dimethylphenoxy)propyl)-1-oxo-7-(1,3,5-trimethyl-1H-pyrazol-4-yl)-4,5-dihydro-1H-[1,4]diazepino[1,2-a]indol-2(3H)-yl)-3,4-dihydroquinolin-1(2H)-yl)acetic acid]",26 nM
2,"Cc1cc(OCCCc2c3n(c4c(-c5c(C)nn(C)c5C)c(Cl)ccc24)[C@H](C)CN(c2cn(C)c4ccc(-c5nnc(-c6ccccc6)o5)cc24)C3=O)cc(C)c1Cl [Example 421, (R)-7-chloro-10-(3-(4-chloro-3,5-dimethylphenoxy)propyl)-4-methyl-2-(1-methyl-5-(5-phenyl-1,3,4-oxadiazol-2-yl)-1H-indol-3-yl)-6-(1,3,5-trimethyl-1H-pyrazol-4-yl)-3,4-dihydropyrazino[1,2-a]indol-1(2H)-one]",3.4 nM
3,"Cc1cc(CCCCc2c(C(=O)N3CCN(c4cc(C(=O)O)ccn4)CC3)n(Cc3cccnc3)c3c(-c4c(C)nn(C)c4C)c(Cl)ccc23)cc(C)c1Cl [Example 741, 2-(4-(6-Chloro-3-(4-(4-chloro-3,5-dimethylphenyl)butyl)-1-(pyridin-3-ylmethyl)-7-(1,3,5-trimethyl-1H-pyrazol-4-yl)-1H-indole-2-carbonyl)piperazin-1-yl)isonicotinic acid]",> 200 nM
4,"Cc1cc(OCCCc2c3n(c4c(-c5c(C)nn(C)c5C)c(Cl)ccc24)[C@H](C)[C@@H](C)N(c2cc(C(=O)O)c4ccn(C)c4c2)C3=O)cc(C)c1Cl [Example 143, 6-((3R,4R)-7-chloro-10-(3-(4-chloro-3,5-dimethylphenoxy)propyl)-3,4-dimethyl-1-oxo-6-(1,3,5-trimethyl-1H-pyrazol-4-yl)-3,4-dihydropyrazino[1,2-a]indol-2(1H)-yl)-1-methyl-1H-indole-4-carboxylic acid]",7.6 nM
5,"Cc1cc(OCCCc2c3n(c4c(-c5c(C)nn(C)c5C)c(Cl)ccc24)[C@H](C)CN(c2ccc(F)c4cc[nH]c24)C3=O)cc(C)c1Cl [Example 446, (R)-7-Chloro-10-(3-(4-chloro-3,5-dimethylphenoxy)propyl)-2-(4-fluoro-1H-indol-7-yl)-4-methyl-6-(1,3,5-trimethyl-1H-pyrazol-4-yl)-3,4-dihydropyrazino[1,2-a]indol-1(2H)-one]",8.2 nM
6,"Cc1cc(OCCCc2c3n(c4c(-c5c(C)nn(C)c5C)c(Cl)ccc24)[C@H](C)CN(c2cccc4c2cc(C(=O)O)n4CCN2CCCC2)C3=O)cc(C)c1Cl [Example 369, (R)-4-(7-Chloro-10-(3-(4-chloro-3,5-dimethylphenoxy)propyl)-4-methyl-1-oxo-6-(1,3,5-trimethyl-1H-pyrazol-4-yl)-3,4-dihydropyrazino[1,2-a]indol-2(1H)-yl)-1-(2-(pyrrolidin-1-yl)ethyl)-1H-indole-2-carboxylic acid]",3.2 nM
7,"Cc1cc(OCCCc2c3n(c4c(-c5c(C)nn(C)c5C)c(Cl)ccc24)CCCN(c2cc(C(=O)O)c4cn(CCN(C)C)nc4c2)C3=O)cc(C)c1Cl [Example 42, 6-[8-chloro-11-[3-(4-chloro-3,5-dimethyl-phenoxy)propyl]-1-oxo-7-(1,3,5-trimethylpyrazol-4-yl)-4,5-dihydro-3H-[1,4]diazepino[1,2-a]indol-2-yl]-2-[2-(dimethylamino)ethyl]indazole-4-carboxylic acid]",8 nM
8,"Cc1cc(OCCCc2c3n(c4c(-c5c(C)nn(C)c5C)c(Cl)ccc24)CCCN(c2cc(C(=O)O)c4c(c2)nnn4C)C3=O)cc(C)c1Cl [Example 5, 6-[8-Chloro-11-[3-(4-chloro-3,5-dimethyl-phenoxy)propyl]-1-oxo-7-(1,3,5-trimethylpyrazol-4-yl)-4,5-dihydro-3H-[1,4]diazepino[1,2-a]indol-2-yl]-3-methyl-benzotriazole-4-carboxylic acid]",2.7 nM
9,"Cc1cc(OCCCc2c(C(=O)N(C)c3ccc(C(=O)O)cc3)n(CCN3CCOCC3)c3c(-c4c(C)nn(C)c4C)c(Cl)ccc23)cc(C)c1Cl [Example 731, 4-[[6-Chloro-3-[3-(4-chloro-3,5-dimethyl-phenoxy)propyl]-1-(2-morpholinoethyl)-7-(1,3,5-trimethylpyrazol-4-yl)indole-2-carbonyl]-methyl-amino]benzoic acid]",> 200 nM
10,"Cc1cc(OCCCc2c(C(=O)NC3CCC(C(=O)O)CC3)[nH]c3c(-c4c(C)ncnc4C)c(Cl)ccc23)cc(C)c1Cl (single isomer, unassigned) [Example 747, 4-(6-Chloro-3-(3-(4-chloro-3,5-dimethylphenoxy)propyl)-7-(4,6-dimethylpyrimidin-5-yl)-1H-indole-2-carboxamido)cyclohexane-1-carboxylic acid]",16 nM
11,"Cc1cc(OCCCc2c3n(c4c(-c5c(C)nn(C)c5C)c(Cl)ccc24)[C@H](C)CN(c2ccc4c(C(=O)O)nn(C)c4c2)C3=O)cc(C)c1Cl [Example 121, (R)-6-(7-Chloro-10-(3-(4-chloro-3,5-dimethylphenoxy)propyl)-4-methyl-1-oxo-6-(1,3,5-trimethyl-1H-pyrazol-4-yl)-3,4-dihydropyrazino[1,2-a]indol-2(1H)-yl)-1-methyl-1H-indazole-3-carboxylic acid]",1.9 nM
12,"Cc1cc(OCCCc2c3n(c4c(-c5c(C)nn(C)c5C)c(Cl)ccc24)CCCN(c2cc(C(=O)O)cc4c2cnn4CCN(C)C)C3=O)cc(C)c1Cl [Example 40, 4-[8-Chloro-11-[3-(4-chloro-3,5-dimethyl-phenoxy)propyl]-1-oxo-7-(1,3,5-trimethylpyrazol-4-yl)-4,5-dihydro-3H-[1,4]diazepino[1,2-a]indol-2-yl]-1-[2-(dimethylamino)ethyl]indazole-6-carboxylic acid]",3.9 nM
13,"CCN1C(=O)COc2cc(C(=O)O)cc(N3C[C@@H](C)n4c(c(CCCOc5cc(C)c(Cl)c(C)c5)c5ccc(Cl)c(-c6c(C)nn(C)c6C)c54)C3=O)c21 [Example 90, (R)-5-(7-chloro-10-(3-(4-chloro-3,5-dimethylphenoxy)propyl)-4-methyl-1-oxo-6-(1,3,5-trimethyl-1H-pyrazol-4-yl)-3,4-dihydropyrazino[1,2-a]indol-2(1H)-yl)-4-ethyl-3-oxo-3,4-dihydro-2H-benzo[b][1,4]oxazine-7-carboxylic acid]",8.7 nM
14,"Cc1cc(OCCCc2c3n(c4c(-c5c(C)nn(C)c5C)c(Cl)ccc24)[C@H](C)CN(c2nc4cc(C(=O)O)ccn4n2)C3=O)cc(C)c1Cl [Example 135, (R)-2-(7-chloro-10-(3-(4-chloro-3,5-dimethylphenoxy)propyl)-4-methyl-1-oxo-6-(1,3,5-trimethyl-1H-pyrazol-4-yl)-3,4-dihydropyrazino[1,2-a]indol-2(1H)-yl)-[1,2,4]triazolo[1,5-a]pyridine-7-carboxylic acid]",< 1 nM
15,"COC(=O)c1ccc2c(c1)c(N1C[C@@H](C)n3c(c(CCCOc4cc(C)c(Cl)c(C)c4)c4ccc(Cl)c(-c5c(C)nn(C)c5C)c43)C1=O)cn2COCC[Si](C)(C)C [Example 243, Methyl (R)-3-(7-chloro-10-(3-(4-chloro-3,5-dimethylphenoxy)propyl)-4-methyl-1-oxo-6-(1,3,5-trimethyl-1H-pyrazol-4-yl)-3,4-dihydropyrazino[1,2-a]indol-2(1H)-yl)-1-((2-(trimethylsilyl)ethoxy)methyl)-1H-indole-5-carboxylate]",45 nM
16,"Cc1cc(CCCCc2c(C(=O)N3CCN(c4ccccc4C(=O)O)CC3)n(Cc3cccnc3)c3c(-c4c(C)nn(C)c4C)c(Cl)ccc23)cc(C)c1Cl [Example 739, 2-(4-(6-Chloro-3-(4-(4-chloro-3,5-dimethylphenyl)butyl)-1-(pyridin-3-ylmethyl)-7-(1,3,5-trimethyl-1H-pyrazol-4-yl)-1H-indole-2-carbonyl)piperazin-1-yl)benzoic acid]",73 nM
17,"Cc1nn(C)c(C)c1-c1c(Cl)ccc2c(CCCOCC3CC3)c3n(c12)[C@H](C)CN(c1cn(C)c2ccc(C(=O)O)cc12)C3=O [Example 404, (R)-3-(7-chloro-10-(3-(cyclopropylmethoxy)propyl)-4-methyl-1-oxo-6-(1,3,5-trimethyl-1H-pyrazol-4-yl)-3,4-dihydropyrazino[1,2-a]indol-2(1H)-yl)-1-methyl-1H-indole-5-carboxylic acid]",44 nM
18,"Cc1cc(OCCCc2c3n(c4c(-c5c(C)nn(C)c5C)c(Cl)ccc24)CCCN(c2cc(C(=O)O)c4c(cnn4C)c2)C3=O)cc(C)c1Cl [Example 85, 5-[8-Chloro-11-[3-(4-chloro-3,5-dimethyl-phenoxy)propyl]-1-oxo-7-(1,3,5-trimethylpyrazol-4-yl)-4,5-dihydro-3H-[1,4]diazepino[1,2-a]indol-2-yl]-1-methyl-indazole-7-carboxylic acid]",1.5 nM
19,"Cc1cc(CCCCc2c(C(=O)N3CCN(c4ccccc4C(=O)O)CC3)[nH]c3c(-c4c(C)nn(C)c4C)c(Cl)ccc23)cc(C)c1Cl [Example 744, 2-(4-(6-Chloro-3-(4-(4-chloro-3,5-dimethylphenyl)butyl)-7-(1,3,5-trimethyl-1H-pyrazol-4-yl)-1H-indole-2-carbonyl)piperazin-1-yl)benzoic acid]",30 nM
20,"Cc1cc(OCCCc2c3n(c4c(-c5c(C)nn(C)c5C)c(Cl)ccc24)[C@H](C)CN(c2cc(O)cc4c2cc(C(=O)O)n4C)C3=O)cc(C)c1Cl [Example 303, (P, R)-4-(7-chloro-10-(3-(4-chloro-3,5-dimethylphenoxy)propyl)-4-methyl-1-oxo-6-(1,3,5-trimethyl-1H-pyrazol-4-yl)-3,4-dihydropyrazino[1,2-a]indol-2(1H)-yl)-6-hydroxy-1-methyl-1H-indole-2-carboxylic acid]",< 1 nM
21,"CC(=O)N1CCN(c2cc(C(=O)O)cc(CN3CCCn4c(c(CCCOc5cc(C)c(Cl)c(C)c5)c5ccc(Cl)c(-c6c(C)nn(C)c6C)c54)C3=O)n2)CC1 [Example 17, 2-(4-acetylpiperazin-1-yl)-6-((8-chloro-11-(3-(4-chloro-3,5-dimethylphenoxy)propyl)-1-oxo-7-(1,3,5-trimethyl-1H-pyrazol-4-yl)-4,5-dihydro-1H-[1,4]diazepino[1,2-a]indol-2(3H)-yl)methyl)isonicotinic acid]",10 nM
